From patent US20250145633A1, “SUBSTITUTED FURANOPYRIMIDINE COMPOUNDS AS PDE1 INHIBITORS” (Dart NeuroScience, LLC, priority 2017, published 2025) come the findings set out here.

The structures appear in SMILES notation. Where only a bound is given, the exact number is not on record here.

The target in the first test is human PDE1B enzyme (Homo sapiens (Human), UniProt Q01064). The test is described as follows: IMAP TR-FRET PDE1B enzymatic assay. The format is biochemical. The conditions noted are these: negative log of half-maximal molar inhibitory concentration; 200 nM FAM-cAMP; values given as bins. The essentials: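 Full-length GST-tagged human PDE1B (250 pg/well) in IMAP BSA buffer with 10 U/ml calmodulin and 2.5 mM CaCl2; compound pre-incubated 5 min at room temperature, then 200 nM (final) FAM-cAMP for 30 min. IMAP binding reagent/Tb added, 1 h; TR-FRET 520/490 ratio read. IC50 from sigmoidal dose-response fit.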
(In TR-FRET formats the signal depends on donor and acceptor labels being close together.)
Turning to `COc1ccc(CNC(=O)c2c(C)oc3ncnc(NC4(C)CC4)c23)cc1Cl` [Example 488, N-[(3-Chloro-4-methoxyphenyl)methyl]-6-methyl-4-[(1-methylcyclopropyl)amino]furo[2,3-d]pyrimidine-5-carboxamide], the “PDE1b (pIC50)” value is reported as over 8. `COc1ccc(C(C)NC(=O)c2c(C)oc3ncnc(NC4(C)CC4)c23)cc1C` (centres unmarked) [Example 502, N-[1-(4-Methoxy-3-methylphenyl)ethyl]-6-methyl-4-[(1-methylcyclopropyl)amino]furo[2,3-d]pyrimidine-5-carboxamide]: the “PDE1b (pIC50)” value was over 8.

As for `Cc1oc2ncnc(NC3(C)CC3)c2c1C(=O)N1CCC(c2cccc(F)n2)C1` (centres unmarked) [Example 532, 5-[3-(6-Fluoropyridin-2-yl)pyrrolidine-1-carbonyl]-6-methyl-N-(1-methylcyclopropyl)furo[2,3-d]pyrimidin-4-amine], the “PDE1b (pIC50)” value is over 8. Still for that read-out and setting: under `Cc1oc2ncnc(NC3(C)CC3)c2c1C(=O)NCc1cc(C#N)ccc1F` [Example 533, N-[(5-Cyano-2-fluorophenyl)methyl]-6-methyl-4-[(1-methylcyclopropyl)amino]furo[2,3-d]pyrimidine-5-carboxamide] stands over 8; under `Cc1oc2ncnc(NC3(C)CC3)c2c1C(=O)N1CCNC(c2ccc(F)cc2)C1` (centres unmarked) [Example 536, 5-[3-(4-Fluorophenyl)piperazine-1-carbonyl]-6-methyl-N-(1-methylcyclopropyl)furo[2,3-d]pyrimidin-4-amine], over 8.

`COc1ccccc1OCCNC(=O)c1c(C)oc2ncnc(NC3(C)CC3)c12` [Example 557, N-[2-(2-Methoxyphenoxy)ethyl]-6-methyl-4-[(1-methylcyclopropyl)amino]furo[2,3-d]pyrimidine-5-carboxamide]: the “PDE1b (pIC50)” value is listed as over 8. For `Cc1oc2ncnc(NC3(C)CC3)c2c1C(=O)NCCOc1ccccc1F` [Example 559, N-[2-(2-Fluorophenoxy)ethyl]-6-methyl-4-[(1-methylcyclopropyl)amino]furo[2,3-d]pyrimidine-5-carboxamide], the “PDE1b (pIC50)” value is reported as over 8.

The test is the same for the next values; noted with them: negative log of half-maximal molar inhibitory concentration; 200 nM FAM-cAMP; values given as bins; read-out: PDE1b (pIC50) (converted).
`COc1cc(CNC(=O)c2c(C)oc3ncnc(NC4(C)CC4)c23)ccc1O` [Example 487, N-[(4-Hydroxy-3-methoxyphenyl)methyl]-6-methyl-4-[(1-methylcyclopropyl)amino]furo[2,3-d]pyrimidine-5-carboxamide]: the IC50 is 10 to 100 nM. On the same count and under the same terms, under `CCN(Cc1ccc(OC)cc1)C(=O)c1c(C)oc2ncnc(NC3(C)CC3)c12` [Example 489, N-ethyl-N-[(4-Methoxyphenyl)methyl]-6-methyl-4-[(1-methylcyclopropyl)amino]furo[2,3-d]pyrimidine-5-carboxamide] stands 10 to 100 nM. Regarding `COc1cc(CNC(=O)c2c(C)oc3ncnc(NC4(C)CC4)c23)cc(OC)c1` [Example 495, N-[(3,5-Dimethoxyphenyl)methyl]-6-methyl-4-[(1-methylcyclopropyl)amino]furo[2,3-d]pyrimidine-5-carboxamide], the IC50 was 10 to 100 nM. With `COc1c(C)cnc(CN(C)C(=O)c2c(C)oc3ncnc(NC4(C)CC4)c23)c1C` [Example 498, N-[(4-Methoxy-3,5-dimethylpyridin-2-yl)methyl]-N,6-dimethyl-4-[(1-methylcyclopropyl)amino]furo[2,3-d]pyrimidine-5-carboxamide], the IC50 is 10 to 100 nM. The same measure, in the same setting: under `Cc1oc2ncnc(NC3(C)CC3)c2c1C(=O)N1C[C@H]2CC[C@@H](C1)O2` [Example 499, 6-Methyl-N-(1-methylcyclopropyl)-5-[(1R,5S)-8-oxa-3-azabicyclo[3.2.1]octane-3-carbonyl]furo[2,3-d]pyrimidin-4-amine] stands 100 to 1000 nM; under `C=CCN(Cc1ccc(OC)cc1)C(=O)c1c(C)oc2ncnc(NC3(C)CC3)c12` [Example 508, N-[(4-Methoxyphenyl)methyl]-6-methyl-4-[(1-methylcyclopropyl)amino]-N-(prop-2-en-1-yl)furo[2,3-d]pyrimidine-5-carboxamide], 10 to 100 nM; under `CCOc1ccc(CNC(=O)c2c(C)oc3ncnc(NC4(C)CC4)c23)cc1OC` [Example 509, N-[(4-Ethoxy-3-methoxyphenyl)methyl]-6-methyl-4-[(1-methylcyclopropyl)amino]furo[2,3-d]pyrimidine-5-carboxamide], 10 to 100 nM. `COc1ccc(C(C)N(C)C(=O)c2c(C)oc3ncnc(NC4(C)CC4)c23)cc1F` (centres unmarked) [Example 510, N-[1-(3-Fluoro-4-methoxyphenyl)ethyl]-N,6-dimethyl-4-[(1-methylcyclopropyl)amino]furo[2,3-d]pyrimidine-5-carboxamide]: the IC50 was 10 to 100 nM.

As to `Cc1oc2ncnc(NC3(C)CC3)c2c1C(=O)NC(CO)c1ccc(F)cc1` (centres unmarked) [Example 513, N-[1-(4-Fluorophenyl)-2-hydroxyethyl]-6-methyl-4-[(1-methylcyclopropyl)amino]furo[2,3-d]pyrimidine-5-carboxamide], the IC50 was 10 to 100 nM. Consider `C#CC(C)(C)NC(=O)c1c(C)oc2ncnc(NC3(C)CC3)c12` [Example 520, 6-Methyl-N-(2-methylbut-3-yn-2-yl)-4-[(1-methylcyclopropyl)amino]furo[2,3-d]pyrimidine-5-carboxamide], for which the IC50 is 10 to 100 nM. Still for that read-out and setting: under `Cc1oc2ncnc(NC3(C)CC3)c2c1C(=O)N1CCN(c2ccc(F)cc2S(C)(=O)=O)CC1` [Example 521] stands 10 to 100 nM; under `Cc1oc2ncnc(NC3(C)CC3)c2c1C(=O)N1CCN(c2ccc(S(C)(=O)=O)cc2F)CC1C` (centres unmarked) [Example 522, 5-[4-(2-Fluoro-4-methanesulfonylphenyl)-2-methylpiperazine-1-carbonyl]-6-methyl-N-(1-methylcyclopropyl)furo[2,3-d]pyrimidin-4-amine], 10 to 100 nM; under `COc1ccc(CNC(=O)c2c(C)oc3ncnc(NC4(C)CC4)c23)c(C)c1` [Example 524, N-[(4-Methoxy-2-methylphenyl)methyl]-6-methyl-4-[(1-methylcyclopropyl)amino]furo[2,3-d]pyrimidine-5-carboxamide], 10 to 100 nM. The same measure, in the same setting: under `COc1cc(F)ccc1CNC(=O)c1c(C)oc2ncnc(NC3(C)CC3)c12` [Example 525, N-[(4-Fluoro-2-methoxyphenyl)methyl]-6-methyl-4-[(1-methylcyclopropyl)amino]furo[2,3-d]pyrimidine-5-carboxamide] stands 10 to 100 nM. Regarding `COc1ccccc1CN(C)C(=O)c1c(C)oc2ncnc(NC3(C)CC3)c12` [Example 528, N-[(2-Methoxyphenyl)methyl]-N,6-dimethyl-4-[(1-methylcyclopropyl)amino]furo[2,3-d]pyrimidine-5-carboxamide], the IC50 was 10 to 100 nM. On the same count and under the same terms, with `Cc1oc2ncnc(NC3(C)CC3)c2c1C(=O)N1CCC(c2ncccc2F)C1` (centres unmarked) [Example 529, 5-[3-(3-Fluoropyridin-2-yl)pyrrolidine-1-carbonyl]-6-methyl-N-(1-methylcyclopropyl)furo[2,3-d]pyrimidin-4-amine] the figure was 10 to 100 nM. On the same count and under the same terms, under `COc1ccc(C2CCN(C(=O)c3c(C)oc4ncnc(NC5(C)CC5)c34)CC2)nc1F` [Example 530, 5-[4-(6-Fluoro-5-methoxypyridin-2-yl)piperidine-1-carbonyl]-6-methyl-N-(1-methylcyclopropyl)furo[2,3-d]pyrimidin-4-amine] stands 10 to 100 nM; under `Cc1oc2ncnc(NC3(C)CC3)c2c1C(=O)NCc1ccc(Cl)cc1F` [Example 534, N-[(4-Chloro-2-fluorophenyl)methyl]-6-methyl-4-[(1-methylcyclopropyl)amino]furo[2,3-d]pyrimidine-5-carboxamide], 10 to 100 nM; under `COc1ccc(CCNC(=O)c2c(C)oc3ncnc(NC4(C)CC4)c23)cc1OC` [Example 545, N-[2-(3,4-Dimethoxyphenyl)ethyl]-6-methyl-4-[(1-methylcyclopropyl)amino]furo[2,3-d]pyrimidine-5-carboxamide], 10 to 100 nM. In the case of `COc1cccc(F)c1CNC(=O)c1c(C)oc2ncnc(NC3(C)CC3)c12` [Example 547, N-[(2-Fluoro-6-methoxyphenyl)methyl]-6-methyl-4-[(1-methylcyclopropyl)amino]furo[2,3-d]pyrimidine-5-carboxamide], the IC50 is 10 to 100 nM. Same read-out and setting: under `COc1ccc(CNC(=O)c2c(C)oc3ncnc(NC4(C)CC4)c23)c(Cl)c1` [Example 551, N-[(2-Chloro-4-methoxyphenyl)methyl]-6-methyl-4-[(1-methylcyclopropyl)amino]furo[2,3-d]pyrimidine-5-carboxamide] stands 10 to 100 nM. `CCOc1cccc(F)c1CNC(=O)c1c(C)oc2ncnc(NC3(C)CC3)c12` [Example 552, N-[(2-Ethoxy-6-fluorophenyl)methyl]-6-methyl-4-[(1-methylcyclopropyl)amino]furo[2,3-d]pyrimidine-5-carboxamide]: the IC50 was 10 to 100 nM. Same read-out and setting: with `COc1ccccc1OCCN(C)C(=O)c1c(C)oc2ncnc(NC3(C)CC3)c12` [Example 558, N-[2-(2-Methoxyphenoxy)ethyl]-N,6-dimethyl-4-[(1-methylcyclopropyl)amino]furo[2,3-d]pyrimidine-5-carboxamide] the figure was 10 to 100 nM. Still for that read-out and setting: under `Cc1oc2ncnc(NC3(C)CC3)c2c1C(=O)NCCCc1nc2cc(F)ccc2[nH]1` [Example 568, N-[3-(5-Fluoro-1H-1,3-benzodiazol-2-yl)propyl]-6-methyl-4-[(1-methylcyclopropyl)amino]furo[2,3-d]pyrimidine-5-carboxamide] stands 10 to 100 nM; under `Cc1oc2ncnc(NC3(C)CC3)c2c1C(=O)N(C)Cc1cc2cc(F)ccc2[nH]1` [Example 569, N-[(5-Fluoro-1H-indol-2-yl)methyl]-N,6-dimethyl-4-[(1-methylcyclopropyl)amino]furo[2,3-d]pyrimidine-5-carboxamide], 10 to 100 nM.
